Data: patent publication US10653651B2, “Kit for treating cancer with low molecular weight components of aurin tricarboxylic acid complex” (Aurin Biotech Inc., priority 2014, dated 2020)

Tests used:
Type in all cases: cell-based, human
VEGF = test: Western blot of VEGF expression and release by BxPC-3 cells; conditions: 10 μM, 1 day; for expression of vascular endothelial growth factor (VEGF) in BxPC-3 cells: cell extract; for release of VEGF into the extracellular milieu by BxPC-3 cells: supernatant
Description: Experiment 2 was designed to determine the effect of ATA, AQA, and AHA on the expression and release of Factor H and VEGF by U251 cells. Cells were grown in DMEM for 24 h at 37° C., after which ATA, AQA, or AHA was added to the medium at a final concentration of 10 μM and incubation carried out for a further 24 h. The medium was drawn off, and the cells washed with PBS. Lysis buffer was then added to the cells. Forty microliters of the cell lysate, or the supernatant media, were loaded onto 12% polyacrylamide gels and separated under non-reducing conditions (70 V, 3-6 h). Following SDS-PAGE, proteins were transferred to a PVDF membrane (Bio-RadTM, CA) at 30 mA for 2 h. The membranes were blocked with 5% milk in PBS-T (80 mM Na2HPO4, 20 mM NaH2PO4, 100 mM NaCl, 0.1% Tween 20, pH 7.4) for 1 h, and incubated overnight at 4° C. with primary antibodies for Factor H (CytotechTM, goat 1/1000) and for VEGF (MilliporeTM, rabbit 1/2000). The membranes were then washed 3 times with PBST. They were then treated with an appropriate horseradish peroxidase (HRP)-conjugated secondary antibody for 3 h at room temperature. The secondary antibodies were anti-rabbit IgG (P0448, DAKOTM, Mississauga, Ontario, CA, 1/2,000) and anti-goat IgG (A[…], MilliporeTM, Billerica, Ma, 1/3,000). The bands were visualized with an enhanced chemiluminescence system and exposure to photographic film (Hyperfilm ECLTM, AmershamTM Pharmacia Biotech, Little Chalfont, UK). For reprobing of membranes with an alternative antibody, the membranes were treated with 10 mL of stripping buffer (3 mL of 1 M Tris-HCl pH 6.7, 10 mL of 10% SDS, 347 μL of 14 M mercaptoethanol, and 36.5 mL deionized water) at 60° C. for 1 h. The membrane was then placed on a shaking incubator for 30 min to clear it of all bound antibodies. The stripped membrane was then treated with a different primary antibody as previously described. Experiment 6 was designed to determine the effect of ATA, AQA, and AHA on the expression and release of Factor H and VEGF by BxPC-3 cells.

Factor H [1] = test: Western blot of Factor H expression in BxPC-3 cells; conditions: 10 μM, 1 day, cell extract
Description: Experiment 2 was designed to determine the effect of ATA, AQA, and AHA on the expression and release of Factor H and VEGF by U251 cells. Cells were grown in DMEM for 24 h at 37° C., after which ATA, AQA, or AHA was added to the medium at a final concentration of 10 μM and incubation carried out for a further 24 h. The medium was drawn off, and the cells washed with PBS. Lysis buffer was then added to the cells. Forty microliters of the cell lysate, or the supernatant media, were loaded onto 12% polyacrylamide gels and separated under non-reducing conditions (70 V, 3-6 h). Following SDS-PAGE, proteins were transferred to a PVDF membrane (Bio-RadTM, CA) at 30 mA for 2 h. The membranes were blocked with 5% milk in PBS-T (80 mM Na2HPO4, 20 mM NaH2PO4, 100 mM NaCl, 0.1% Tween 20, pH 7.4) for 1 h, and incubated overnight at 4° C. with primary antibodies for Factor H (CytotechTM, goat 1/1000) and for VEGF (MilliporeTM, rabbit 1/2000). The membranes were then washed 3 times with PBST. They were then treated with an appropriate horseradish peroxidase (HRP)-conjugated secondary antibody for 3 h at room temperature. The secondary antibodies were anti-rabbit IgG (P0448, DAKOTM, Mississauga, Ontario, CA, 1/2,000) and anti-goat IgG (A[…], MilliporeTM, Billerica, Ma, 1/3,000). […]

Factor H [2] = test: Western blot of Factor H expression in A549 cells; conditions: 10 μM, 1 day, cell extract
Description: Experiment 2 was designed to determine the effect of ATA, AQA, and AHA on the expression and release of Factor H and VEGF by U251 cells. Cells were grown in DMEM for 24 h at 37° C., after which ATA, AQA, or AHA was added to the medium at a final concentration of 10 μM and incubation carried out for a further 24 h. The medium was drawn off, and the cells washed with PBS. Lysis buffer was then added to the cells. Forty microliters of the cell lysate, or the supernatant media, were loaded onto 12% polyacrylamide gels and separated under non-reducing conditions (70 V, 3-6 h). Following SDS-PAGE, proteins were transferred to a PVDF membrane (Bio-Rad™, CA) at 30 mA for 2 h. The membranes were blocked with 5% milk in PBS-T (80 mM Na2HPO4, 20 mM NaH2PO4, 100 mM NaCl, 0.1% Tween 20, pH 7.4) for 1 h, and incubated overnight at 4° C. with primary antibodies for Factor H (Cytotech™, goat 1/1000) and for VEGF (Millipore™, rabbit 1/2000). The membranes were then washed 3 times with PBST. They were then treated with an appropriate horseradish peroxidase (HRP)-conjugated secondary antibody for 3 h at room temperature. The secondary antibodies were anti-rabbit IgG (P0448, DAKO™, Mississauga, Ontario, CA, 1/2,000) and anti-goat IgG (AP106P, Millipore™, Billerica, Ma, 1/3,000). […]

A549 cells = test: DNA laddering (apoptosis) in A549 cells; conditions: 10 μM, 1 day, agarose gel
Description: For determination of DNA laddering, which is indicative of DNA disintegration, cells were precipitated by centrifugation, washed, and lysed with […] Tris-HCl, 5 mM EDTA, and 3% Triton-X-100. The lysates were incubated at 37° C. for 1 h and then centrifuged at 12,000g for 10 min. They were treated with phenol/chloroform/isoamylalcohol (25:24:1) and chloroform/isoamylalcohol (24:1) twice each, and precipitated with 0.6 volume isopropyl alcohol and 0.1 volume 3 M sodium actate at −20° C. for 30 min. The precipitates were centrifuged at 12,000 g for 20 min, washed with 70% ethanol and dissolved with TE buffer containing 2 μg/mL bovine RNase. DNAs were electrophoresed in 10 μg/mL ethidium bromide containing 2% w/v agarose gel.
The protocol was identical to that used in Experiment 7 except A549 cells were used.

Substance | expression of vascular endothelial growth factor (VEGF) in BxPC-3 cells (VEGF) | release of VEGF into the extracellular milieu by BxPC-3 cells (VEGF) | expression of Factor H in BxPC-3 cells (Factor H [1]) | expression of Factor H in A549 cells (Factor H [2]) | DNA fragmentation (180 bp laddering) in A549 cells (A549 cells)
aurin hexacarboxylic acid [AHA] | reducing expression | reducing release | reducing expression | reduced expression | induced DNA fragmentation
aurin quadracarboxylic acid [AQA] | reducing expression | reducing release | reducing expression | reduced expression | induced DNA fragmentation
